The target in data set [1] is T1, NEPS1-WT (Nepeta racemosa, UniProt A0A3Q8GL18).
T1 construct: made in house; host or cells: E. coli SoluBL21
T1 sequence (A0A3Q8GL18 1-271): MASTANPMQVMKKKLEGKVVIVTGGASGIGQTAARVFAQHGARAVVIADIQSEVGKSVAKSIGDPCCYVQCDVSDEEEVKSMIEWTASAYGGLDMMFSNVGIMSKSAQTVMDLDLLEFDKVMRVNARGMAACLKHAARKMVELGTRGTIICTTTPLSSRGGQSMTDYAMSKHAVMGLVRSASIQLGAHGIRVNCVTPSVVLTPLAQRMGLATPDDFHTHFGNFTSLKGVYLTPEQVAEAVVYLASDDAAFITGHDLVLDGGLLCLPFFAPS
In words: NEPS1 dehydrogenase activity kinetics, spectrophotometric at 340 nm. To be noted: for Kcat or V (velocity V, single substrate concentration): substrate 1000 μM. It is filed as biochemical, Nepeta mussinii. The procedure:
(§1) Kinetics and dehydrogenase activity measurements were conducted spectrophotometrically on a PerkinElmer Lambda 35 instrument at a wavelength of 340 nm and in cuvettes with 1 cm path length. The reactions were conducted at 25° C. and with 50 mM HEPES pH 8.0, […].
(§2) Reactions were initiated by addition of the enzyme, and absorbance values were recorded at a rate of 1 Hz. Enzyme concentration was varied from 0.025-0.25 μM to maintain a linear rate. The R software environment was used to fit linear initial rates over the first 20 s of the enzyme reaction. For Michaelis-Menten experiments, at least 8 data points were obtained for each substrate combination. The Michaelis-Menten equation was fitted to the data points in R by the nls function to obtain values for the kinetic parameters. Kinetic parameters are reported as a best fit estimate±SE. For activity measurements with NADP^+ and NADH, single substrate concentrations were employed. Velocity values (in italics) are provided as a mean of triplicate measurements±standard deviation from the mean.

For data set [2], the target named is T2, NEPS1-T154G (Nepeta racemosa, UniProt A0A3Q8GL18, T154G).
T2 construct: This gene-length amplicon was gel-purified and then cloned into the pOPINF vector; made in house; host or cells: E. coli SoluBL21
It is filed as biochemical, Nepeta mussinii. The protocol: as §1, §2

Data set [3] in a line: Nepetalactol stability in buffer (GC-MS). In kind it is physicochemical. To be noted: 30° C. The protocol: Cis-trans-nepetalactol (4a, FIG. 10A) and cis-cis-nepetalactol (4b, FIG. 10B) stability in 10 mM and 0.5 M MOPS pH 7.5. 4a appears to be stable in both these conditions. 4b appears mostly stable in 10 mM MOPS pH 7.5, but is not stable in high buffer concentrations (0.5 M MOPS pH 7.5) and degrades to form iridodials 5. Chromatograms are all GC-MS TICs, RT=retention time (min), incubation was 16 h, 30° C.
End-point assays with purified enzymes were conducted at a total volume of 100 μL. Reactions using either 8-oxogeranial 2 or 8-oxocitronellal 6 as a substrate contained 1% v/v MeCN. In experiments examining the effect of buffer concentrations, enzymes were diluted with water. Trace residual concentrations of sample buffer in the enzyme sample were too low to effect product profiles. All reactions were conducted at 30° C. Reactions containing 8-oxogeranial 2 as a substrate were incubated for 3 h, whilst reactions with 8-oxocitronellal 6 were incubated for 16 h, unless noted. At reaction termination, a camphor standard (10 μL, stock 1 mM in MeCN) and EtOAc (100 μL) were added. The reactions were vortexed, centrifuged (10,000×g, 10 min) and the organic layer was used in GC-MS analysis. The concentrations of components in reactions varied extensively and so for each reaction the Figure or Figure legend describe the exact conditions employed.
Samples were injected in split mode (2 μL, split ratio 5:1) at an inlet temperature of 220° C. on a Hewlett Packard 6890 GC-MS equipped with a 5973 mass selective detector (MSD), and an Agilent 7683B series injector and autosampler. Separation was performed on a Zebron ZB5-HT-INFERNO column (5% phenyl methyl siloxane; length: 35 m; diameter: 250 μm) with guard column. Helium was used as mobile phase at a constant flow rate of 1.2 mL/min and average velocity 37 cm/s. After 5 min at 80° C., the column temperature was increased to 110° C. at a rate of 2.5 K/min, then to 280° C. at 120 K/min, and kept at 280° C. for another 4 min. A solvent delay of 5 min was allowed before collecting MS spectra at a fragmentation energy of 70 eV. An internal standard of (+)-camphor was used for retention time calibration. Chemically characterised standards were used to identify compounds by retention time and electron impact spectra.

[4] abbreviates: co-substrate NAD+ 1 mM, 25° C., 50 mM HEPES pH 8.0.
Where [5] appears, read: co-substrate NAD+ 1 mM, substrate 50-750 μM.
The mark [6] stands for this setting: co-substrate 4a 0.1 mM, substrate 1-250 μM.
Setting [7] is: co-substrate 4a 0.5 mM, substrate 7.8-1000 μM.

Like-named read-outs stand apart in the source and are kept apart here.

Turning to `CC1=COC(=O)[C@H]2[C@@H]1CC[C@@H]2C` (relative stereo) [1a, cis-trans-nepetalactone], the “Kcat or V (velocity V, single substrate concentration)” value in data set [1] (co-substrate NADH 0.1 mM) is given as “no reaction”.

As a reminder, the Km is the substrate concentration at which the rate is half of its maximum. Turning to `CC1=COC(O)[C@H]2[C@@H]1CC[C@@H]2C` (relative stereo) [4a, cis-trans-nepetalactol], the figures for the “Kcat or V (kcat, substrate concentration varied)” value in data set [1] (setting [4]) and in data set [2] (setting [5]) were 0.148 ± 0.002 s⁻¹ and 0.0804 ± 0.005 s⁻¹, respectively. The Km in data set [1] (setting [4]) came out at 1.6 ± 0.1 µM; in data set [2] (setting [5]), 251 ± 37 µM. In data set [2] (NEPS1-T154G versus NEPS1-WT), the “increase in Km caused by the T154G substitution” value was 150 fold. Moreover, the stability in buffer entry in data set [3] (10 mM MOPS pH 7.5, 16 h) was “stable”; in data set [3] (0.5 M MOPS pH 7.5, 16 h), “stable”.

In the case of `CC1=COC(O)[C@H]2[C@@H](C)CC[C@@H]12` (relative stereo) [4b, cis-cis-nepetalactol], the “Kcat or V (kcat, substrate concentration varied)” value in data set [1] (setting [4]) stood at 0.32 ± 0.01 s⁻¹. Besides, the Km in data set [1] (setting [4]) was 4.9 ± 0.8 µM. Moreover, the stability in buffer result in data set [3] (10 mM MOPS pH 7.5, 16 h) is reported as “mostly stable”; in data set [3] (0.5 M MOPS pH 7.5, 16 h), “not stable”.

As for `NC(=O)c1ccc[n+]([C@@H]2O[C@H](COP(=O)([O-])OP(=O)(O)OC[C@H]3O[C@@H](n4cnc5c(N)ncnc54)[C@H](O)[C@@H]3O)[C@@H](O)[C@H]2O)c1` [NAD+, oxidized nicotinamide adenine dinucleotide, reference compound], in data set [1] (setting [6]), the “Kcat or V (kcat, substrate concentration varied)” value came to 0.173 ± 0.003 s⁻¹ and the Km stood at 3.5 ± 0.3 µM. In data set [2] (setting [7]), the “Kcat or V (kcat, substrate concentration varied)” value was found to be 0.0599 ± 0.002 s⁻¹ and the Km came out at 26 ± 4 µM.

Turning to `NC(=O)c1ccc[n+]([C@@H]2O[C@H](COP(=O)([O-])OP(=O)(O)OC[C@H]3O[C@@H](n4cnc5c(N)ncnc54)[C@H](OP(=O)(O)O)[C@@H]3O)[C@@H](O)[C@H]2O)c1` [NADP+, reference compound], the “Kcat or V (velocity V, single substrate concentration)” value in data set [1] (co-substrate 4a 0.1 mM) came to 0.020 ± 0.005 s⁻¹.

Source of the values: US12264349B2, “Method for producing monoterpenoid compounds” (John Innes Centre, priority 2018, dated 2025).
